Reference: the supplement of paper PMC10307832

What was measured:
[1] = compound: CC1=CC(=CC=C1)NC2=NC(=CS2)C3=CC=NC=C3; experiment: relative viability (nuclei count vs DMSO), 5 days (fraction); higher = more cells survive
How it was run: (§1)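 Five library-drug doses spaced by √10 were pinned onto vehicle-anchored 1536-well plates of lung cancer cell lines that had been kept overnight at 37 °C. Cells went 5 days without medium change, then were fixed, permeabilised and Hoechst-stained together, imaged at 4× and counted by MetaXpress. Viability is the ratio of treated-well to vehicle-well nuclei, taken as a median over plates. Plates required control CV below 25% and at least one doubling.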

Masitinib = compound: Cc1ccc(NC(=O)c2ccc(CN3CCN(C)CC3)cc2)cc1Nc1nc(-c2cccnc2)cs1 [Masitinib]; experiment: as above
How it was run: as §1

Row | Cell Line | relative viability ([1]; 0.08 µM) | relative viability ([1]; 0.253 µM) | relative viability ([1]; 0.8 µM) | relative viability ([1]; 2.53 µM) | relative viability ([1]; 8 µM) | relative viability (Masitinib; 0.01 µM) | relative viability (Masitinib; 0.03162 µM) | relative viability (Masitinib; 0.1 µM) | relative viability (Masitinib; 0.3162 µM) | relative viability (Masitinib; 1 µM)
1 | 201T | 0.939 | 0.959 | 0.959 | 0.74 | 0.712 | 0.79 | 1.03 | 0.825 | 0.783 | 0.976
2 | A549 | 0.888 | 0.871 | 0.943 | 0.929 | 0.921 | 0.906 | 0.953 | 1.09 | 1.03 | 0.856
3 | A-427 | 0.864 | 0.951 | 0.968 | 0.859 | 0.878 |  | 0.951 | 0.69 | 1.08 | 0.931
4 | ABC-1 | 0.795 | 0.786 | 1.08 | 0.786 | 0.41 | 0.857 | 0.902 | 1.08 | 0.853 | 0.93
5 | BEN | 0.928 | 0.95 | 0.913 | 0.897 | 1.03 | 1.06 | 0.845 | 1.16 | 0.953 | 0.975
6 | CAL-12T | 0.867 | 0.928 | 1.06 | 0.854 | 0.911 | 0.922 | 0.953 | 0.99 | 0.97 | 0.967
7 | COR-L23 | 0.981 | 0.986 | 0.926 | 0.877 | 0.989 | 1.02 | 0.969 | 1.06 | 0.984 | 0.981
8 | COR-L 105 | 0.742 | 0.901 | 0.818 | 0.776 | 0.667 | 0.944 | 0.894 | 0.976 | 0.856 | 0.897
9 | Calu-6 | 0.894 | 0.936 | 0.873 | 0.943 | 0.87 | 0.98 | 1.04 | 1.06 | 0.977 | 0.985
10 | ChaGo-K-1 | 0.997 | 1.01 | 0.973 | 1.03 | 0.814 | 1.17 | 0.988 | 1.12 | 1.1 | 0.984
11 | EBC-1 | 0.788 | 0.882 | 0.865 | 0.823 | 0.685 | 0.988 | 0.946 | 1.2 | 0.984 | 0.834
12 | EKVX | 0.884 | 0.933 | 0.795 | 0.89 | 0.82 | 0.627 | 0.86 | 0.805 | 0.717 | 0.927
13 | EMC-BAC-2 | 0.834 | 0.712 | 1.01 | 0.838 | 0.885 | 0.78 | 0.784 | 0.893 | 0.937 | 0.927
14 | EPLC-272H | 0.856 | 0.793 | 0.813 | 0.732 | 0.958 | 0.887 | 0.788 | 0.962 | 0.866 | 0.815
15 | H3255 | 0.916 | 0.931 | 0.984 | 0.934 | 0.903 | 0.743 | 0.986 | 0.766 | 0.784 | 0.906
16 | HARA | 0.741 | 0.975 | 0.815 | 0.685 | 0.735 | 0.844 | 0.874 | 0.772 | 0.742 | 0.909
17 | HCC-15 | 0.916 | 0.936 | 1.02 | 0.915 | 0.807 | 0.774 | 0.983 | 0.836 | 0.962 | 0.959

Row | Cell Line | relative viability ([1]; 0.08 µM) | relative viability ([1]; 0.253 µM) | relative viability ([1]; 0.8 µM) | relative viability ([1]; 2.53 µM) | relative viability ([1]; 8 µM) | relative viability (Masitinib; 0.01 µM) | relative viability (Masitinib; 0.03162 µM) | relative viability (Masitinib; 0.1 µM) | relative viability (Masitinib; 0.3162 µM) | relative viability (Masitinib; 1 µM)
18 | HCC-44 | 0.862 | 0.795 | 0.843 | 0.797 | 0.859 | 0.816 | 1.01 | 0.978 | 0.871 | 0.961
19 | HCC-78 | 0.781 | 0.789 | 0.811 | 0.817 | 0.971 | 0.891 | 0.814 | 0.956 | 0.789 | 0.902
20 | HCC-366 | 0.979 | 0.956 | 1.03 | 1.02 | 0.931 | 0.729 | 1.14 | 0.75 | 0.977 | 0.994
21 | HCC-827 | 0.963 | 0.982 | 0.951 | 1 | 0.7 | 0.868 | 1.03 | 0.888 | 0.959 | 1.01
22 | HOP-62 | 0.952 | 0.972 | 1.08 | 0.997 | 0.966 | 0.954 | 0.995 | 0.962 | 1.08 | 1.01
23 | IA-LM | 0.856 | 0.772 | 0.9 | 0.76 | 0.677 | 0.885 | 0.901 | 1.01 | 0.977 | 0.982
24 | LC-2-ad | 0.877 | 0.916 | 0.967 | 0.839 | 0.785 | 0.806 | 1.01 | 0.951 | 0.966 | 0.944
25 | LCLC-97TM1 | 0.763 | 0.818 | 0.96 | 0.927 | 0.974 | 0.803 | 1.03 | 0.869 | 1.02 | 0.928
26 | LCLC-103H | 0.896 | 0.886 | 0.913 | 0.968 | 0.712 | 0.741 | 1.01 | 0.757 | 0.816 | 0.899
27 | LK-2 | 0.816 | 0.98 | 1.27 | 0.793 | 1.41 | 1.09 | 0.89 | 1.23 | 1.19 | 1.08
28 | LOU-NH91 | 0.826 | 0.849 | 0.943 | 0.905 | 0.851 | 0.839 | 0.888 | 0.925 | 0.838 | 0.904
29 | LU99A | 0.877 | 0.917 | 0.972 | 0.997 | 0.956 | 1.03 | 0.94 | 1.09 | 1.06 | 0.916
30 | LXF-289 | 0.942 | 0.987 | 0.974 | 0.974 | 0.915 | 0.806 | 0.973 | 0.941 | 1 | 1.01
31 | NCI-H23 | 0.879 | 0.808 | 1.01 | 0.835 | 0.972 | 0.888 | 0.926 | 1.03 | 0.933 | 0.916
32 | NCI-H322M | 0.819 | 0.845 | 0.948 | 1.02 | 0.961 | 0.934 | 0.948 | 0.933 | 0.897 | 0.848
33 | NCI-H358 | 0.997 | 0.899 | 0.868 | 1.01 | 0.966 | 0.963 | 0.967 | 0.961 | 0.892 | 0.893
34 | NCI-H441 | 0.957 | 1 | 1.01 | 0.922 | 0.866 | 1.01 | 0.956 | 1.09 | 1.25 | 1.07
